# Laboratory results taken from US4820828A, “Cinnamohydroxamic acids” (Ortho Pharmaceutical Corporation, priority 1987, dated 1989).
# Like-named read-outs stand apart in the source and are kept apart here.
# How the values were obtained:
# 5-lipoxygenase = biological target: T1, 5-lipoxygenase (Rattus norvegicus, UniProt P12527); experiment: Inhibition of 5-lipoxygenase in a cell-free homogenate of RBL-1 cells (production of lipoxygenase products from 14C-arachidonic acid); format: biochemical; conditions: rat RBL-1 40,000 xg supernatant; for IC50: 50% inhibition of lipoxygenase product generation
# T1 construct: The cell-free homogenate was prepared by sonication of the cells followed by centrifugation at 40,000 xg; endogenous in cells; host or cells: RBL-1 (rat basophilic leukemia) cells, 40,000 xg supernatant of the sonicated homogenate
# T1 sequence (P12527 1-673): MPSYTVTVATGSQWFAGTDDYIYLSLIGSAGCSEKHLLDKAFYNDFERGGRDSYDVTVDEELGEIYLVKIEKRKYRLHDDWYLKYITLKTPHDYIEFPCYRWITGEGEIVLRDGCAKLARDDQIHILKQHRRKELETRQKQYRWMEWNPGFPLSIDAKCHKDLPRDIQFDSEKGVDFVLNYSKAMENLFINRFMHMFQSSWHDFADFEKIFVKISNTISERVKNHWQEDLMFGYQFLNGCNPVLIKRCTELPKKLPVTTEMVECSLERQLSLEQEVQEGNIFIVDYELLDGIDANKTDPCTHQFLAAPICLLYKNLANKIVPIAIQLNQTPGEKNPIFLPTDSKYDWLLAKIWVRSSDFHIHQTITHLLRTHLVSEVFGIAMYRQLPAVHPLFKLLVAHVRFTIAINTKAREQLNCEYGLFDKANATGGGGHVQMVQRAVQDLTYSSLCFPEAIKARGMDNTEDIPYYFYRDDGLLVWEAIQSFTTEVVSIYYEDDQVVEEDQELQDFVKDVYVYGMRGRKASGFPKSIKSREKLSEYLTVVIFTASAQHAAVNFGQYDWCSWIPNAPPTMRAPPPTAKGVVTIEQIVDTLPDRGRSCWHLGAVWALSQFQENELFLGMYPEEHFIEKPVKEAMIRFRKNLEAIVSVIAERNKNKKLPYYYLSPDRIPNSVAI
# Description: The inhibition of 5-lipoxygenase was tested in a cell-free homogenate by the procedure of Jakschik, B. et al., Biochem.Biophys.Res.Comm. 95, 103 (1980). Basically, rat basophilic leukemia cells (RBL-1 cells) were maintained in culture in a suitable medium, and were collected by centrifugation prior to assay. The cell-free homogenate was prepared by sonication of the cells followed by centrifugation at 40,000 xg. The CaCl2 dependent production of lipoxygenase products from ^14 C-arachidonic acid in the 40,000 xg supernatant was monitored in the presence of buffer (or other vehicle) or drug. Products were isolated by acidification and extraction, followed by thin layer chromatography. Radioactive areas corresponding to authentic lipoxygenase products were quantitated by liquid scintillation counting. Data was reported as the IC50, the concentration causing 50% inhibition of the generation of lipoxygenase products. The results are shown in Table II as the percent inhibition at 3 μM or the amount of compound necessary to cause 50% inhibition.
# [1] = test system: Arachidonate Induced Bronchospasm; experiment: Pulmonary mechanics assay: inhibition of arachidonate induced bronchospasm in anesthetized guinea pigs; format: in vivo, guinea pig (male Hartley); conditions: Cavia porcellus, guinea pig, % inhibition of control; for inhibition in vivo at 15 mg/kg: dose 15 mg/kg IV; for inhibition in vivo at 10 mg/kg: dose 10 mg/kg ID; for inhibition in vivo at 100 mg/kg: dose 100 mg/kg ID; for inhibition in vivo at 50 mg/kg: dose 50 mg/kg ID; for inhibition in vivo at 25 mg/kg: dose 25 mg/kg ID
# Description: The bronchodilating activity of the compounds was tested in a pulmonary mechanics assay. Basically, male Hartley guinea pigs (~400-500 g) were anesthetized with urethane (2 g/kg, i.p.) and placed in a whole body plethysmograph. Cannulations of a jugular vein and carotid artery were performed for compound administration and monitoring blood presure, respectively. The trachea was cannulated for respiration at a constant volume via a miniature starling pump. A Validyne differential pressure transducer (±20 cm H2 O) sensed transpleural pressure via a 15 gauge needle inserted into the pleural cavity and a sidearm from the tracheal cannula. Tidal volume was sensed by another Validyne differential pressure transducer (±2 cm H2 O) from pressure changes inside the plethysmograph. An on-line Buxco pulmonary mechanics computer calculated air flow, dynamic lung compliance and lung resistance. The values were recorded on a print-out.
# The guinea pigs were pretreated with succinyl choline (1.2 mg/kg, i.v.) to arrest spontaneous respiration. A control challenge of arachidonic acid (0.5-1.0 mg/kg, i.v.) was administered, and the animals were then dosed with the test compound by various routes. At least 10 minutes were allowed to expire between arachidonic acid challenges. A second challenge was given and compared to the control response. This comparison was indicative of cyclooxygenase inhibition. Indomethacin (10 mg/kg, i.v.) was administered immediately after the second challenge. A third challenge of a higher dose of arachidonic acid (5-10 mg/kg, i.v.) was given. This response was induced by SRS-A and compared to the responses elicited by a separate control group of animals. Activity was indicative of lipoxygenase inhibition. Propranolol (0.005 mg/kg, i.v.) may be given prior to the third challenge to enhance the response to SRS-A.
# Bronchoconstriction induced by arachidonic acid with or without indomethacin was expressed as maximum percent change in dynamic lung compliance (Cdyn) and maximum percent increase in lung resistance (RL). Each guinea pig served as its own control for cyclooxygenase evaluation, while a treated group was compared to a control group for lipoxygenase evaluation. The results are shown in Table II and are expressed as the percent inhibition of control.
# [2] = with indomethacin (10 mg/kg, i.v.), read-out: Bronchodilating Activity, % Inhibition of Arachidonate Induced Bronchospasm, with Indomethacin
# [3] = without indomethacin, read-out: Bronchodilating Activity, % Inhibition of Arachidonate Induced Bronchospasm, without Indomethacin
# [4] = iv, with indomethacin (10 mg/kg, i.v.), read-out: Bronchodilating Activity, % Inhibition of Arachidonate Induced Bronchospasm, with Indomethacin
Compound,inhibition at 3 µM (5-lipoxygenase) [%],"inhibition in vivo at 15 mg/kg [1, 2] [%]","inhibition in vivo at 15 mg/kg [1, 3] [%]",other results
"CN(O)C(=O)/C=C/c1ccc(F)cc1 [Example 1, 4-Fluoro-N-methylcinnamohydroxamic acid]",30,,,
"COc1ccc(OC)c(/C=C/C(=O)N(C)O)c1 [Example 2, 2,5-Dimethoxy-N-methylcinnamohydroxamic acid]",53,49,65,
"COc1cc(/C=C/C(=O)N(C)O)cc(OC)c1OC [Example 3, 3,4,5-Trimethoxy-N-methycinnamohydroxamic acid]",91,89,0,
"COc1ccc(/C=C/C(=O)N(C)O)cc1OC [Example 4, 3,4-Dimethoxy-N-methylcinnamohydroxamic acid]",89,90,82,IC50 (5-lipoxygenase): 600 nM
"CN(O)C(=O)/C=C/c1ccc(Cl)c(O)c1 [Example 5, 4-Chloro-3-hydroxy-N-methylcinnamohydroxamic acid]",35,,,
"COc1ccc(/C=C/C(=O)NO)cc1OC [Example 6, 3,4-Dimethoxycinnamohydroxamic acid]",17,,,"inhibition in vivo at 10 mg/kg [1, 4]: 61%; inhibition in vivo at 10 mg/kg [1, 3]: 77%"
"Cc1ccc(/C=C/C(=O)N(C)O)cc1 [Example 7, N,4-Dimethylcinnamohydroxamic acid]",,89,96,"IC50 (5-lipoxygenase): 550 nM; inhibition in vivo at 100 mg/kg [1, 4]: 0%; inhibition in vivo at 100 mg/kg [1, 3]: 59%"
"COc1ccccc1/C=C/C(=O)N(C)O [Example 8, 2-Methoxy-N--methylcinnamohydroxamic acid]",66,73,94,"inhibition in vivo at 50 mg/kg [1, 4]: 58%; inhibition in vivo at 50 mg/kg [1, 3]: -76%"
"COc1ccccc1/C=C\C(=O)N(C)O [Example 9, Cis-2-methoxy-N--methylcinnamohydroxamic acid]",59,36,29,
"COc1cc(/C=C/C(=O)N(C)O)cc(OC)c1O [Example 10, 3,5-Dimethoxy-4-hydroxy-N--methylcinnamohydroxamic acid]",17,,,
"CN(O)C(=O)/C=C/c1ccc2c(c1)OCO2 [Example 12, 3,4-Methylenedioxy-N--methylcinnamohydroxamic acid]",53,58,15,
"CN(O)C(=O)/C=C/c1ccc2c(c1)OCCO2 [Example 13, 3,4-(1,2-Ethylenedioxy)-N--methylcinnamohydroxamic acid]",53,,,
"CN(O)C(=O)/C=C/c1ccc(Cl)cc1Cl [Example 14, 2,4-Dichloro-N--methylcinnamohydroxamic acid]",88,,,
"CN(O)C(=O)/C=C/c1c(Cl)cccc1Cl [Example 15, 2,6-Dichloro-N--methylcinnamohydroxamic acid]",24,,,
"CN(O)C(=O)/C=C/c1ccc(Cl)c(Cl)c1 [Example 16, 3,4-Dichloro-N--methylcinnamohydroxamic acid]",87,86,62,
"CN(O)C(=O)/C=C/c1ccccc1 [Example 17, N--Methylcinnamohydroxamic acid]",50,,,"inhibition in vivo at 50 mg/kg [1, 4]: 0%; inhibition in vivo at 50 mg/kg [1, 3]: -35%"
"COc1cc(/C=C/C(=O)N(C)O)cc(OC)c1 [Example 18, 3,5-Dimethoxy-N--methylcinnamohydroxamic acid]",100,78,48,
"COc1cccc(/C=C/C(=O)N(C)O)c1OC [Example 19, 2,3-Dimethoxy-N--methylcinnamohydroxamic acid]",44,70,34,
"COc1ccc(/C=C/C(=O)N(C)O)c(OC)c1 [Example 20, 2,4-Dimethoxy-N--methylcinnamohydroxamic acid]",100,,,"IC50 (5-lipoxygenase): 430 nM; inhibition in vivo at 25 mg/kg [1, 4]: 46%; inhibition in vivo at 25 mg/kg [1, 3]: 46%"
"COc1cccc(OC)c1/C=C/C(=O)N(C)O [Example 22, 2,6-Dimethoxy-N--methylcinnamohydroxamic acid]",41,,,
"CN(O)C(=O)/C=C/c1ccc(Cl)c([N+](=O)[O-])c1 [Example 23, 4-Chloro-3-nitro-N--methylcinnamohydroxamic acid]",30,,,
"COc1cccc(/C=C/C(=O)N(C)O)c1 [Example 24, 3-Methoxy-N--methylcinnamohydroxamic acid]",54,66,28,"inhibition in vivo at 50 mg/kg [1, 4]: 49%; inhibition in vivo at 50 mg/kg [1, 3]: 0%"
"COc1ccc(/C=C/C(=O)N(C)O)cc1 [Example 25, 4-Methoxy-N--methylcinnamohydroxamic acid]",,29,0,IC50 (5-lipoxygenase): 1300 nM
"CN(O)C(=O)/C=C/c1ccc(Cl)cc1 [Example 26, 4-Chloro-N--methylcinnamohydroxamic acid]",,70,87,
"CN(O)C(=O)/C=C/c1cc(C(C)(C)C)c(O)c(C(C)(C)C)c1 [Example 27, 3,5-Di-t-butyl-4-hydroxy-N--methyl-cinnamo-hydroxamic acid]",65,89,56,
